According to patent US4495356A, “1,4-Dihydropyridine compound” (Nikken Chemicals Co., Ltd., priority 1982, dated 1985):

Assays:
[1] = tested on: hepatic disorder induced by carbon tetrachloride; test: Effect on hepatic disorder induced by carbon tetrachloride in rats (Examples 6 and 7; serum GOT, GPT, bilirubin); type: in vivo, SLC-Wistar male rats; details: CCl4 0.5 ml/kg i.p., 200 mg/kg orally for 2 days, blood 24 hours after CCl4; for Bilirubin in serum: normal 0.10 ± 0.00, no combination compound 0.24 ± 0.02; for GPT in serum: normal 46 ± 6, no combination compound 10266 ± 818; for GOT in serum: normal 97 ± 10, no combination compound 16650 ± 1636
Experimental: The effects of the sample compounds on hepatic disorders were evaluated by determining the levels of GOT, GPT, and bilirubin […] in serum, after administering carbon tetrachloride and the sample compound to SLC-Wistar male rats (10 week age and body weight of 240 to 270 g) as follows.
Five rats were used in each test group. The sample compounds (i.e., the compounds prepared in Examples 2 and 3) were suspended at a concentration of 40 mg/ml in a 0.1% aqueous solution of Tween-80. Alpha-tocopherol was dissolved at a concentration of 40 mg/ml in olive oil. This solution was administered orally at a dose of 200 mg/kg each for 2 days. Glutathione was dissolved at a concentration of 100 mg/ml in a 0.1% aqueous solution of Tween-80. This solution was orally administered at a dose of 500 mg/kg for 2 days. Carbon tetrachloride was intraperitoneally administered as a 10% olive oil solution at a dose of 5 ml/kg (0.5 ml/kg in terms of CCl4) one hour after the final administration of each sample compound.
Blood sampels were collected from the carotid artery under pentobarbital anesthesia, 24 hours after the administration of carbon tetrachloride. The rats were fasted for 18 to 20 hours before collecting of a blood sample.
(§1) The determination of GOT and GPT in serum was carried out according to a UV method and the determination of bilirubin was carried out according to a diazo method.

[2] = in vivo; details: rat, oral, rats 5 week age, observed for 3 days
[3] = tested on: liver disorder induced by D-galactosamine; test: Effect on liver disorder induced by D-galactosamine in rats (serum GOT, GPT, bilirubin); type: in vivo, Wistar-Imamichi male rats; details: D-galactosamine 400 mg/kg i.p., 200 mg/kg orally for 2 days, blood 24 hours after D-galactosamine; for Bilirubin in serum: normal 0.12 ± 0.02, no combination compound 0.43 ± 0.06; for GPT in serum: normal 15 ± 1, no combination compound 2195 ± 460; for GOT in serum: normal 97 ± 3, no combination compound 6170 ± 1507
Experimental: Effect of 3,5-diethoxycarbonyl-4-[2'-(5',6'-dihydro-p-dioxinyl)]-2,6-dimethyl-1,4-dihydropyridine (compound of Example 1) on liver disorder induced by D-galactosamine.
The effect of the sample compound to be tested on hepatic disorder was evaluated by determining the levels of GOT, GPT and bilirubin, which are known as an indicator of hepatic disorder, in serum, after administering D-galactosamine hydrochloride and the sample compound to Wistar-Imamichi male rats (8 week age and body weight of 260 to 280 g) as follows.
Five rats were used in each test group. The sample compound (i.e., the compound prepared in Example 1) was suspended at a concentration of 40 mg/ml in a 0.1% aqueous solution of Tween-80 (Trademark of surfactant available from Atlas Chemical Corp.). Alpha-tocopherol was dissolved at a concentration of 40 mg/ml in olive oil. This solution was administered orally at a dose of 200 mg/kg each for 2 days (25 and 1 hours before the administration of D-galactosamine). D-galactosamine was dissolved at a concentration of 100 mg/ml in a Physiological saline and this solution was administered intraperitoneally at a single dose of 400 mg/kg one hour after the final administration of the sample compound.
Blood samples were collected from the carotid artery under pentobarbital anesthesia, 24 hours after the administration of D-galactosamine. The rats were fasted for 18 to 20 hours before collecting of blood sample.
as §1

[4] = tested on: hepatic disorder induced by carbon tetrachloride; test: Effect on hepatic disorder induced by carbon tetrachloride in rats (Example 5; serum GOT, GPT, bilirubin); type: in vivo, SLC-Wistar male rats; details: CCl4 0.5 ml/kg i.p., blood 24 hours after CCl4; for Bilirubin in serum: normal 0.12 ± 0.02, no combination compound 0.26 ± 0.02; for GPT in serum: normal 32 ± 3, no combination compound 10606 ± 1952; for GOT in serum: normal 73 ± 5, no combination compound 18228 ± 2032
Experimental: Five rats were used in each test group. The sample compound (i.e., the compound prepared in Example 1) was suspended at a concentration of 40 mg/ml in a 0.1% aqueous solution of Tween-80. Alpha-tocopherol was dissolved at a concentration of 40 mg/ml in an olive oil. This solution was administered orally at a dose of 200 mg/kg each for 2 days. Glutathione was dissolved at a concentration of 100 mg/ml in a 0.1% aqueous solution of Tween-80. This solution was orally administered at a dose of 500 mg/kg for 2 days. Carbon tetrachloride was intraperitoneally administered as a 10% olive oil solution at a dose of 5 ml/kg (0.5 ml/kg in terms of CCl4) one hour after the final administration of the sample compound. Blood samples were collected from the carotid artery under pentobarbital anesthesia, 24 hours after the administration of carbon tetrachloride. […] The determination of GOT and GPT in serum was carried out according to a UV method and the determination of bilirubin was carried out according to a diazo method.

[5] = glutathione 500 mg/kg orally for 2 days

With `COC(=O)C1=C(C)NC(C)=C(C(=O)OC)C1C1=COCCO1` [Example 3, 3,5-dimethoxycarbonyl-4-2'-(5',6'-dihydro-p-dioxinyl)-2,6-dimethyl-1,4-dihydropyridine] the Bilirubin in serum [1] was 0.14 ± 0.02 mg/dL, the GPT in serum [1] was 680 ± 107 KU and the GOT in serum [1] was 901 ± 127 KU.

With `CCCOC(=O)C1=C(C)NC(C)=C(C(=O)OCCC)C1C1=COCCO1` [Example 2, 3,5-di-n-propyloxycarbonyl-4-[2'-(5',6'-dihydro-p-dioxynyl)]-2,6-dimethyl-1,4-dihydropyridine] the Bilirubin in serum [1] was 0.13 ± 0.03 mg/dL, the GPT in serum [1] was 1443 ± 228 KU and the GOT in serum [1] was 2456 ± 734 KU. The LD50 at 72 h [2] was ≥ 2000 mg/kg.

Compound `CCOC(=O)C1=C(C)NC(C)=C(C(=O)OCC)C1C1=COCCO1` [Example 1, 3,5-diethoxycarbonyl-4-[2'-(5',6'-dihydro-p-dioxinyl)]-2,6-dimethyl-1,4-dihydropyridine] has a Bilirubin in serum [3] of 0.30 ± 0.06 mg/dL, a GPT in serum [3] of 862 ± 373 KU and a GOT in serum [3] of 2194 ± 777 KU. The Bilirubin in serum ([4]; 200 mg/kg orally for 2 days) was 0.14 ± 0.02 mg/dL, the GPT in serum ([4]; 200 mg/kg orally for 2 days) was 1396 ± 290 KU and the GOT in serum ([4]; 200 mg/kg orally for 2 days) was 1800 ± 321 KU. It also gave an LD50 at 72 h [2] of ~2000 mg/kg.

With `N[C@@H](CCC(=O)N[C@@H](CS)C(=O)NCC(=O)O)C(=O)O` [glutathione] the Bilirubin in serum [4, 5] was 0.22 ± 0.02 mg/dL, the GPT in serum [4, 5] was 7722 ± 1170 KU and the GOT in serum [4, 5] was 11272 ± 1904 KU.

With `Cc1c(C)c2c(c(C)c1O)CCC(C)(CCCC(C)CCCC(C)CCCC(C)C)O2` (stereo not drawn) [alpha-tocopherol, reference compound] the Bilirubin in serum [3] was 0.26 ± 0.02 mg/dL, the GPT in serum [3] was 1043 ± 189 KU and the GOT in serum [3] was 3065 ± 440 KU. The Bilirubin in serum ([4]; 200 mg/kg orally for 2 days) was 0.18 ± 0.02 mg/dL, the GPT in serum ([4]; 200 mg/kg orally for 2 days) was 5764 ± 1564 KU and the GOT in serum ([4]; 200 mg/kg orally for 2 days) was 5662 ± 793 KU. For the same compound, the Bilirubin in serum [1] was 0.26 ± 0.04 mg/dL, the GPT in serum [1] was 9106 ± 591 KU and the GOT in serum [1] was 14558 ± 1049 KU.
